Measurements as given in patent US7196110B2, “N-substituted tricyclic 3-aminopyrazoles as inhibitors for the treatment of cell proliferative disorders” (Janssen Phamaceutica N.V., priority 2002, dated 2007).
Like-named read-outs stand apart in the source and are kept apart here.

What was measured:
[1] = system: human coronary artery smooth muscle cells (HCASMC), PDGF-BB induced; assay: Anti-cell proliferation in normal cells in the presence of PDGF stimulation (14C-thymidine incorporation); type: cell-based; conditions: read-out: IC50 on cell proliferation, HCASMC (PDGF-BB)
Method: The effect of compounds of the invention on cell proliferation in normal human primary cells, in particular, cryopreserved human coronary artery smooth muscle cells (HCASMC), in the presence of PDGF stimulation was tested based on incorporation of ^14C-thymidine into DNA of cells.
The following materials were purchased from their respective sources: Recombinant human PDGF beta homodimer, rhPDGF-BB (herein after referred as “PDGF-BB”) purchased from R&D System (Minneapolis, Minn., Cat. No 220-BB); Cryopreserved human coronary artery smooth muscle cells (HCASMC), tissue culture medium for HCASMC, and smooth muscle growth supplement (SMGS) purchased from Cascade Biologics (Portland, Oreg., HCASMC Cat. No: C-017-5C; Medium 231 Cat. No: M-231-500; and SMGS Cat. No: S-007-25); 96-well CytoStar tissue culture treated scintillating microplates purchased from Amersham (Piscataway, N.J., Cat. No: RPNQ0160); Methyl ^14C-thymidine at 56 mCi/mmol (250 μCi/2.5 mL) purchased from NEN (Cat. No.: NEC568); DMSO from Sigma (St. Louis, Mo., Cat. No: D-5879); Sterile reagent reservoirs from Costar (VWR International, Inc., West Chester, Pa., Cat. No: 4870); Dulbecco's PBS from Gibco (Cat. No: 14190-136); Backing tape white plate cover for bottom of CytoStar plate from Packard (Cat. No: 6005199)
HCASMC were seeded at approx. 4000 cells/well in a volume of 100 μl of complete Medium 231 with SMGS. Cells were grown for 48 hrs until they reach 80% confluence. They were then quiesced in SMGS-free Medium 231 for 24 hrs. Cell media were replenished with SMGS-free Medium 231 containing PDGF-BB at 50 ng/mL in a total volume of 100 μl/well; and 1 μl of test compounds in serially diluted concentrations in 100% DMSO was added to each well. For the maximum growth control wells, only 1 μl of 100% DMSO was added; for minimum growth (blank) wells, 1 μl of 10 mM cycloheximide was added to each well. After 24 hours incubation, 20 μl of ^14C-thymidine mix was added to each well and the ^14C-thymidine mix was made according the following regimen:
Cells were incubated for an additional 24 hrs in media containing test compounds, PDGF-BB and ^14C-thymidine. Then, the reaction mixture was discarded and the plate was washed 3 times each with 200 μl PBS. Subsequently, each well on the plate was filled with 200 μl of PBS. The top of the plate was sealed with transparent plate sealer and white plate backing sealers were applied to the bottom of plates. The retained ^14C inside each well was measured using a Packard TopCount.
The amount of ^14C retained in a well correlates to the proliferation of cells inside the well. […] In order to test the potency of inhibition of the present compound, IC50 of an individual compound on the inhibition of PDGF-BB induced HCASMC proliferation was measured using the above procedure. As used herein, said IC50 refers to the concentration of the test compound at which the amount of PDGF-BB induced HCASMC proliferation is reduced by one-half as compared to the maximum growth control wells without the compound.

[2] = system: human umbilical vein endothelial cells (HUVEC); assay: Anti-cell proliferation in normal cells in the absence of PDGF stimulation (BrdU incorporation); type: cell-based; conditions: read-out: IC50 on cell proliferation, HUVEC (LSGS)
Method: The effect of compounds of the invention on cell proliferation in normal human primary cell, in particular, human umbilical vein endothelial cells (HUVEC), in the absence of PDGF stimulation was tested based on incorporation of BrdU into DNA of cells.
The following materials were purchased from their respective sources: HUVEC cells from Cascade Biologics, Cat No: C-015-10C; Medium 200 from Cascade Biologics, Cat No: M-200-500; Low serum growth supplements (LSGS) from Cascade Biologics, Cat No: S-003-10; F12-K medium from Gibco/BRL, Cat No: 21127-022; BrdU kit from Roche, Cat No: 1 647 229; and Trypsin/EDTA solution from Cascade Biologics, Cat No: R-001-100.
For propigation, HUVEC cells were grown in M-200 medium supplemented with LSGS. For studies, cells were detached with Trypsin/EDTA solution and washed three times with 10 mL of F12K (LS, low serum) medium and then centrifuged at 400×G for 5 minutes. F-12K (LS) medium is F-12K medium containing 0.2% heat-treated fetal bovine serum.
Cell concentration was adjusted to about 5×10^4 cells/mL in F-12K (LS) medium, and 200 μl (approx. 1×10^4 cells) were added to each well of a 96-well plate. Cells were then incubated for 16 to 20 hours at 37° C. under 95% air/5% CO2 to allow the cells to attach and become quiescent.
Cell proliferation was stimulated by adding 50 μL of a 1:10 dilution of LSGS in F12K (LS). Maximum-stimulated control wells were prepared by adding 50 μl of a 1:10 dilution of LSGS. Zero control wells contained 50 SL of F-12K (LS) medium only. Test compounds in 100% DMSO were added at a volume of 2.5 μl to achieve the desired final drug concentration. Replicates of eight wells per condition were tested. Cells were incubated at 37° C. overnight. On the next day 25 μL of BrdU (1:100 dilution of stock in F-12K (LS) medium) was added to each well.
Cells were incubated for an additional 20–24 hours. The medium was removed and the cells were fixed by adding 200 μL of FixDent solution (included in the BrdU kit) to each well and then incubated at room temperature for an additional 30 minutes. FixDent was removed by flicking and blotting the plates, and 100 μL of anti-BrdU-POD (included in the BrdU kit) diluted at a 1:100 dilution in antibody dilution solution (included in the BrdU kit) was added to each well. The diluted anti-BrdU-POD solution was prepared shortly before use. The plates were incubated at room temperature for 90 minutes.
The unbound antibody was removed by washing three times with Wash Solution (200 uL per wash). Wash Solution was prepared by making a 1:10 dilution of Wash Buffer Stock (included in the BrdU kit) with distilled water. Substrate solution (included in the BrdU kit) (100 uL) was added to each well and incubated for an additional 30–40 minutes. Plates were then read at 405 nm on a 96-well plate reader.
In order to test the potency of inhibition of the present compound, IC50 of an individual compound on the inhibition of PDGF-BB independent HUVEC proliferation was measured using the above procedure. As used herein, said IC50 refers to the concentration of the test compound at which the amount of HUVEC proliferation is reduced by one-half as compared to the maximum growth control wells without the compound.

[3] = PDGF-BB induced HCASMC proliferation

Structure (SMILES)	IC50 [1, 3]	IC50 ([2]; LSGS, PDGF-BB independent)	IC50 [1]	IC50 [2]
COC(=O)c1cccc(Nc2[nH]nc3c2Cc2cc(OC)c(OC)cc2-3)c1 [Compound 11, 3-(6,7-Dimethoxy-2,4-dihydro-indeno[1,2-c]pyrazol-3-ylamino)-benzoic acid methyl ester]	14 nM	2 nM		
COc1cc2c(cc1OC)-c1n[nH]c(Nc3ccccc3F)c1C2 [Compound 12, (6,7-Dimethoxy-2,4-dihydro-indeno[1,2-c]pyrazol-3-yl)-(2-fluoro-phenyl)-amine]	106 nM	31 nM		
COc1cc2c(cc1OC)-c1n[nH]c(Nc3cccc(F)c3)c1C2 [Compound 14, (3-Fluoro-phenyl)-(6,7-dimethoxy-2,4-dihydro-indeno[1,2-c]pyrazol-3-yl)-amine]			3 nM	4870 nM
Cc1ccc2c(c1)-c1n[nH]c(Nc3ccccc3)c1C2 [Compound 22, (7-Methyl-2,4-dihydro-indeno[1,2-c]pyrazol-3-yl)-phenyl-amine]	278 nM	2150 nM		
COc1cc2c(cc1OC)-c1n[nH]c(Nc3cccnc3)c1C2 [Compound 30, (6,7-Dimethoxy-2,4-dihydro-indeno[1,2-c]pyrazol-3-yl)-pyridin-3-yl-amine]	2 nM	> 1000 nM		
COc1ccc2c(c1)-c1n[nH]c(Nc3ccccc3)c1C2 [Compound 39, (7-Methoxy-2,4-dihydro-indeno[1,2-c]pyrazol-3-yl)-phenyl-amine]	9 nM			
COc1cc2c(cc1OC)-c1n[nH]c(NCc3ccccc3)c1C2 [Compound 63, Benzyl-(6,7-dimethoxy-2,4-dihydro-indeno[1,2-c]pyrazol-3-yl)-amine]	14 nM	2460 nM		
COc1cccc(Nc2[nH]nc3c2Cc2cc4c(cc2-3)OCO4)c1 [Compound 97, (2,9-Dihydro-5,7-dioxa-2,3-diaza-cyclopenta[a]-s-indacen-1-yl)-(3-methoxy-phenyl)-amine]	19 nM	1910 nM		
CN1CCN(c2ccc3c(c2)Cc2c-3n[nH]c2Nc2cccc(Br)c2)CC1 [Compound 122, (3-Bromo-phenyl)-[6-(4-methyl-piperazin-1-yl)-2,4-dihydro-indeno[1,2-c]pyrazol-3-yl]-amine]	125 nM	223 nM		
COC(=O)c1cccc(Nc2[nH]nc3c2Cc2cc(OCCCN4CCCC4)c(OC)cc2-3)c1 [Compound 157, 3-[7-Methoxy-6-(3-pyrrolidin-1-yl-propoxy)-2,4-dihydro-indeno[1,2-c]pyrazol-3-ylamino]-benzoic acid methyl ester]	8 nM	218 nM		
COc1cc2c(cc1OC)-c1n[nH]c(NCc3cc(Cl)ccc3Cl)c1C2 [Compound 330, (2,5-Dichloro-benzyl)-(6,7-dimethoxy-2,4-dihydro-indeno[1,2-c]pyrazol-3-yl)-amine]		49 nM		
